Literature values in patent US20230346696A1, “SPRAY DRIED LOW HYGROSCOPICITY ACTIVE POWDER COMPOSITIONS” (PHILIP MORRIS PRODUCTS S.A., priority 2020, published 2023).

Conditions: 25° C.

solubility: 69 g/100 ml water
SMILES: OC[C@H]1O[C@H](O[C@H]2O[C@H](CO)[C@@H](O)[C@H](O)[C@H]2O)[C@H](O)[C@@H](O)[C@@H]1O [trehalose]
